Experimental data as given in patent publication US9790211B2, “5-amino-quinoline-8-carboxamide derivatives as 5-HT4 receptor agonists” (SUVEN LIFE SCIENCES LIMITED, priority 2013, dated 2017).

What was measured:
Aβ1-40 = assay: Effect on CSF Aβ1-40 level (ELISA); format: in vivo, Male Sprague Dawley Rat; conditions: p.o., at two hour
Method: (§1) The control group of male rats received a vehicle (reagent grade water) per orally by gavage at a dose volume of 10 mL/kg. The treated groups (6 rat per group) received a single dose of test compound (different doses) or DAPT (50.0 mg/kg). Two hour post dose of vehicle or test compounds, rats were anesthetized with isoflurane and CSF was collected from Cisterna magna using 0.5 mL syringes by utilizing stereotaxic frame. The CSF samples were frozen in liquid nitrogen and stored at −80° C. until ELISA was performed.
(§2) • 1. CSF samples were thawed to RT and diluted with Tris Buffer Saline containing protease inhibitors at 1:10 ratio 115:150 μL (15 μL CSI+135 μL TBS. • 2. To this diluted CSF samples 0.15 mL of EIA buffer (1:1 ratio) was added. These diluted samples were subjected for Aβ1-40 level measurement by ELISA. Measurement of Aβ1-40 by ELISA Kit:
To investigate the role of an acute treatment of test compound on Aβ1-40 levels, expression of this protein in CSF was measured in treated and untreated rat by ELISA assay. The entire procedure was followed as per ELISA kit manual (Mouse/Rat Amyloid-Aβ1-40 ELISA, Cat No: 27721, IBL International, Hamburg, Germany).
(§3) Statistical analysis was performed using the Graph Pad Prism (Version 4). Data are Mean±SD of Aβ1-40 levels expressed as percentage of control values (rat which received regent grade water). Values were compared between the different groups by using unpaired t test. The significance level was set at *p<0.05; **p<0.01; ***p<0.001.

Aβ1-42 = assay: Effect on CSF Aβ1-42 level (ELISA); format: in vivo, Male Sprague Dawley Rat; conditions: p.o., two hour post treatment
Method: as §1, with “by puncturing” for “from”, “frame.” for “frame. The”
as §2, with “[15:150” for “115:150”, “CSF+ 135” for “CSI+135”, “TBS],” for “TBS.”, “Aβ1-42” for “Aβ1-40”
To investigate the role of an acute treatment of test compound on Aβ1-42 levels, expression of this protein was measured in CSF of treated and untreated rat by ELISA assay. The entire procedure was followed as described in ELISA kit manual (Mouse/Rat […], Cat No: 27720, IBL International, Hamburg, Germany).
as §3, with “analyses were” for “analysis was”, “Aβ1-42” for “Aβ1-40”, “by” for “by using”

[1] = tested on: acetylcholine levels in ventral hippocampus; assay: Modulation of acetylcholine from the ventral hippocampus (microdialysis); format: in vivo, male Wistar rats; conditions: p.o.
From the text: Male Wistar rats (240-300 gram body weights) were stereotaxically implanted with a microdialysis guide cannula in the ventral hippocampus (AP: −5.2 mm, ML: +5.0 mm, DV: −3.8 mm). Co-ordinates were taken according to Paxinos and Watson (2007) with reference points taken from bregma and vertical from the skull. The rats were allowed to recover individually for five days in a round bottom Plexiglas bowl with free access to feed and water.
One day prior to the microdialysis experiment, rats were connected to a dual quartz lined two-channel liquid swivel (Instech, UK) on a counter balance lever arm, which allowed unrestricted movements of the animal. […]
On the day of study, probe was perfused at a constant flow rate of […] with artificial cerebrospinal fluid (aCSF; NaCl 147 mM, KCl 3.0 mM, MgCl2 1.0 mM, CaCl2. 2H2O 1.3 mM, NaH2PO4.2H2O 0.2 mM and Na2HPO4. 7H2O 1.0 mM, pH 7.2). […] Dialysates were stored below −70° C. until quantitation of acetylcholine.
Acetylcholine in dialysate was quantified in the calibration range of 0.103 nmol-103.497 nmol using LC-MS/MS method.
All microdialysis data were plotted as percent change from mean dialysate basal concentrations with 100% defined as the average of five predose values. The AUC was calculated by trapezoidal rule using WinNonlin (5.0.1 version. Pharsight Corp. CA). […]

[2] = tested on: Scopolamine Induced amnesia; assay: Radial arm maze; format: in vivo; conditions: p.o., rats
From the text: The cognition enhancing properties of compounds of formula (I) of this invention were estimated by using this model.
Radial arm maze consists of a central hub of 45 cm diameter. Each arm was of dimension 42.5×15×24 cm. The maze was elevated to a height of 1 m above the ground. The animals were placed on a restricted diet until they reached approximately 85% of their free feeding weight. During this diet restriction period animals were habituated to the novel feed (pellets). Once the rats reached approximately 85% of their free feeding weight rats were habituated to the maze on the 1st and 2nd day. […] Animals were randomized on day 2. On the subsequent days the treatment was given as per the allotment: Each animal was introduced into the maze individually for a period of 10 minutes. The arms were baited only once and the animal had to learn the rule that repeated arm entries would not be rewarded. The trial ended once the rat had visited 16 arms or 10 minutes were over or all the pellets were eaten. The arm entries were recorded using the software. Once the trial was over the rat was removed and the maze was cleaned using soap water.

Structure (SMILES)	decrease in the rat CSF Aβ1-40 levels (Aβ1-40; 0.03 mg/kg)	decrease in the rat CSF Aβ1-40 levels (Aβ1-40; 0.1 mg/kg)	decrease in the rat CSF Aβ1-40 levels (Aβ1-40; 0.3 mg/kg)	decrease in the rat CSF Aβ1-40 levels (Aβ1-40; 1.0 mg/kg)	decrease in the rat CSF Aβ1-40 levels (Aβ1-40; 3.0 mg/kg)	decrease in the rat CSF Aβ1-42 levels (Aβ1-42; 0.03 mg/kg)	decrease in the rat CSF Aβ1-42 levels (Aβ1-42; 0.1 mg/kg)	decrease in the rat CSF Aβ1-42 levels (Aβ1-42; 0.3 mg/kg)	decrease in the rat CSF Aβ1-42 levels (Aβ1-42; 1.0 mg/kg)	decrease in the rat CSF Aβ1-42 levels (Aβ1-42; 3.0 mg/kg)	Area under the curve of acetylcholine change, ventral hippocampus (in words) ([1]; 10.0 mg/kg, vs vehicle, p<0.01)	acetylcholine levels from the ventral hippocampus (in words) ([1]; 3.0 and 10.0 mg/kg, male Wistar rats)	Reversal of Scopolamine Induced amnesia - Effective dose range [2]
Nc1c(Cl)cc(C(=O)NCC2CCN(CC3CCOCC3)CC2)c2ncccc12.O=C(O)/C=C/C(=O)O [Example 1, 5-Amino-6-chloro-N-{[1-(tetrahydro-2H-pyran-4-ylmethyl)-4-piperidinyl]methyl}quinoline-8-carboxamide hemifumarate]	27%	24%	40%	22%	29%	25%	21%	35%	22%	26%	–	–	–
Nc1c(Cl)cc(C(=O)NCC2CCN(CC3CCOCC3)CC2)c2ncccc12.O=C(O)C(O)C(O)C(=O)O [Example 13, 5-Amino-6-chloro-N-{[1-(tetrahydro-2H-pyran-4-ylmethyl)-4-piperidinyl]methyl} quinoline-8-carboxamide L(+)-tartarate]	–	–	–	–	–	–	–	–	–	–	significant	dose dependent increase	0.1-1 mg/kg, p.o.
